For two molecules, EC50 and IC50 results are on record in patent publication US20220213092A1, “BICYCLIC PYRAZOLE BRUTON'S TYROSINE KINASE INHIBITORS” (AbbVie Inc., priority 2020, published 2022).

The target in test [1] is T1, Phosphorylation of Y223 of BTK (Homo sapiens, UniProt Q06187).
T1 construct: host or cells: healthy human whole blood, 3 donors
Description: Whole blood compound screening, phosphorylation of Y223 site of BTK (MSD assay). It counts as cell-based. As to conditions: healthy human whole blood, 2 hours at 37° C., 3 separate donors; read-out: WB BTK-pY223 EC50. The gist of the method:
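Heparinized human whole blood from 3 donors treated 2 h at 37 °C with compounds (8 points, top 10 μM, 1:4 dilution, 0.2% DMSO), then lysed. BTK pY223 quantified by MSD sandwich immunoassay (anti-BTK capture, anti-pY223 detection); EC50 from concentration response.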

The target in test [2] is T2, Full length BTK enzyme (human BTK residues 2-659) (Homo sapiens, UniProt Q06187).
T2 construct: 6His (N); Flag (N); TEV cleavage site (N); Serine (single linker residue before BTK residue 2) (N); made in house; host or cells: baculovirus (pFastBac vector)
T2 sequence (Q06187 2-659): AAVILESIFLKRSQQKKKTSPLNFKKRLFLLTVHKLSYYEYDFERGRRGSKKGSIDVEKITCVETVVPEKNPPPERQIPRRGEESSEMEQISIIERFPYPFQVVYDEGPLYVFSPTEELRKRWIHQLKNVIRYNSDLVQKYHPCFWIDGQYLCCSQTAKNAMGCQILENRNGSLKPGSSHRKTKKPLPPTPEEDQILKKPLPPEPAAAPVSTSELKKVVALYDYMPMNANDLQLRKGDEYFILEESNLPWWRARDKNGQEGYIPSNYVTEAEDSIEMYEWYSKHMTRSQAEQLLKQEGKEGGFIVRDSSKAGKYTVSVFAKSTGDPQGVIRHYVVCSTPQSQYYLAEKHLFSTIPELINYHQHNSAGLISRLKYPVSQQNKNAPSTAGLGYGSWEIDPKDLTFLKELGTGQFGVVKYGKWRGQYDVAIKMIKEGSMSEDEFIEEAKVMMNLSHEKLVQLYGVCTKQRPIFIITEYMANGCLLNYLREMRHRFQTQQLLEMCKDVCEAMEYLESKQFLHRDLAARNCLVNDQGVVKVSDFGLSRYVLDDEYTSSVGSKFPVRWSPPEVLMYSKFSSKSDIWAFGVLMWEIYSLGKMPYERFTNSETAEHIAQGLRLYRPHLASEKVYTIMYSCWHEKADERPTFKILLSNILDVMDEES
Description: BTK MSA with full length BTK enzyme, used for Examples 50, 51, 62 and 63. It counts as biochemical. As to conditions: Examples 50, 51, 62 and 63: 1 mM ATP, 0.6 nM full length BTK enzyme, 3 hours at room temperature. As to the method: Kinase activities for Examples 50, 51, 62 and 63 were measured in vitro using the following electrophoretic mobility shift assay (MSA). The kinase reactions were assembled in a total volume of 20 μL in 384 well plates. To each well, 20 nL test compound, or control, in 100% dimethyl sulfoxide was spotted using Echo®, a liquid dispensing instrument (Labcyte, Indianapolis, Ind.). To each well was added: 12 μL of 1.67× Full length BTK enzyme in Master Buffer (Master Buffer components: 20 mM HEPES pH 7.4, 10 mM MgCl2, 1 mM DTT, 0.1 mM sodium orthovanadate, 10 mM beta-glycerophosphate, and 0.0075% w/v Triton x-100). Full length BTK enzyme was 6His-Flag-(TEV)-S[BTK(hu) (2-659)]*BEV, pFastBac*. [Note: this is a description of the exact amino acid sequence of the expressed BTK construct from N- to C-terminus: 6Histidines, Flag tag sequence, TEV cleavage site, Serine, human BTK residues 2-659; and BEV=expressed in baculovirus, pFastBac is the expression vector used].
Enzyme and compound/inhibitor were optionally pre-incubated. To each well was added: 8 μL of 2.5×ATP and substrate in 1× Master Buffer (1× Master Buffer as described above). The plate was incubated at room temperature for 3 hours. The reaction was terminated by adding 30 μL of 1.67× Stop Buffer (Stop Buffer components 10 mM EDTA in water), to each well. The final reaction mixture was as follows: 20 mM HEPES, pH 7.4; 0.0075% Triton X-100; 1 mM DTT; 10 mM MgCl2; 0.1 mM sodium orthovanadate; 10 mM beta-glycerophosphate; 0.1% dimethyl sulfoxide (from compound); 1 mM ATP; 1 μM (OG488-SEQ ID NO. 2-NH2) peptide substrate; and 0.6 nM BTK enzyme. […] The kinase activity for the kinases in Table 3 were measured at 3 hours incubation time, except that in the case of MAP2K1 and MAP2K2 assay, pre-activation of ERK was done for 30 min with 6 μM of ATP, and then the detection of activated ERK in the presence of compounds was done after 60 minutes of incubation.
The terminated reactions were analyzed using a 12 channel LABCHIP® 3000 microfluidic detection instrument (available from Caliper Life Sciences, Waltham, Mass.). […] As substrate and product peptides were separated, two peaks of fluorescence were observed. Change in the relative fluorescence intensity of the substrate and product peaks was the parameter measured, reflecting enzyme activity. […] Capillary electrophoregrams (RDA acquisition files) were analyzed using HTS Well Analyzer software (available from Caliper Life Sciences, Waltham, Mass.).
Activity in each sample was determined as the product to sum ratio (PSR): P/(S+P), where P was the peak height of the product peptide and S was the peak height of the substrate peptide. For each compound, enzyme activity was measured at various concentrations (12 concentrations of compound spaced by 3× dilution intervals). […]

A word on the EC50: it is the midpoint of the concentration-response curve. The term IC50 denotes the concentration that inhibits the measured activity by half. A high value points to weaker potency.

T1 sequence (Q06187 whole entry): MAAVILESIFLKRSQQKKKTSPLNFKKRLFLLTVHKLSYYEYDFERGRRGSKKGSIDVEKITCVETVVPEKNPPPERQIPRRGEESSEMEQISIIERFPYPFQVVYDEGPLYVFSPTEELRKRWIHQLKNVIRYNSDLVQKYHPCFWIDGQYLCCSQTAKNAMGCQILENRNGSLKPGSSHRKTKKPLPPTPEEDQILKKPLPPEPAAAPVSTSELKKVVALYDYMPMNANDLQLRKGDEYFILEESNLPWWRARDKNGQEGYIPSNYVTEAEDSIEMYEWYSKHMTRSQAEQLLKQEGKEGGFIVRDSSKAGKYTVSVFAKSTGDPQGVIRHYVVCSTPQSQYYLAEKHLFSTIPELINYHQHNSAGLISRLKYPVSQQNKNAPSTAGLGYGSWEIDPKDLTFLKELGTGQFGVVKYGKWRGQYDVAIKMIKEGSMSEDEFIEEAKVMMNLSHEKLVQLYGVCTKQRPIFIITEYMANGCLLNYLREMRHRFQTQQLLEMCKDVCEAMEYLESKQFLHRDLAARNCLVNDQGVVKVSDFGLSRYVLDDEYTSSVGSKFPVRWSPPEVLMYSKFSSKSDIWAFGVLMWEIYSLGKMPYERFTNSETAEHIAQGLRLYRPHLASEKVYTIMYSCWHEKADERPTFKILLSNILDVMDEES

In the case of `C=CC(=O)N1CC(N2CCNc3c2nn(-c2ccc(Oc4cccc(F)c4)cc2)c3C(N)=O)C1` [Example 62, 2-[4-(3-fluorophenoxy)phenyl]-7-[1-(prop-2-enoyl)azetidin-3-yl]-4,5,6,7-tetrahydro-2H-pyrazolo[3,4-b]pyrazine-3-carboxamide], the EC50 in test [1] came out at 7.75 nM. Moreover, the midpoint of inhibition in test [2], the IC50, lay at 6.2 nM.
The corresponding values for `C=CC(=O)N1CC(N2CCNc3c2nn(-c2ccc(Oc4ccc(F)c(F)c4)cc2)c3C(N)=O)C1` [Example 63, 2-[4-(3,4-difluorophenoxy)phenyl]-7-[1-(prop-2-enoyl)azetidin-3-yl]-4,5,6,7-tetrahydro-2H-pyrazolo[3,4-b]pyrazine-3-carboxamide] are 19.4 nM and 20.3 nM.
